Among the test systems are HOP-92 NSCLC; KM12 colon; SK-MEL-5 melanoma; 786-0 renal; UACC-62 melanoma; ACHN renal; SF-295 CNS; EKVX NSCLC; OVCAR-8 ovarian; HL-60(TB) leukemia.
Common to all, as to assay: growth of human tumour cells (NCI), 48 h

Where “and” joins values, the source holds several entries; their conditions need not be identical. Equal values may be shown once.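 Results reflect a 48-hour exposure of cells in 96-well plates to compound at five concentrations. Here, GI50 denotes the concentration required for 50% inhibition of growth. TGI marks complete inhibition of growth.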

Turning to `CCN(CC)CCSCCCNc1c2ccc(Cl)cc2nc2ccc(OC)cc12`, the GI50 in the assay with HOP-92 NSCLC is 1.64 µM; in the assay with KM12 colon it was 0.802 µM; in the assay with SK-MEL-5 melanoma, 1.8 µM; in the assay on 786-0 renal, 1.12 µM; with UACC-62 melanoma, 1.93 µM; with ACHN renal, 0.719 µM. The GI50 in the assay on SF-295 CNS was 1.13 µM; in the assay on EKVX NSCLC it was 1.73 µM; in the assay with OVCAR-8 ovarian, 1 µM; in the assay with HL-60(TB) leukemia it was 1.55 µM. Moreover, the TGI in the assay on HOP-92 NSCLC came to 3.41 µM; in the assay on KM12 colon it was 5.03 µM; with SK-MEL-5 melanoma it was 3.24 µM; in the assay on 786-0 renal, 2.43 µM; with UACC-62 melanoma, 3.87 µM; in the assay with ACHN renal, 3.05 µM. The TGI in the assay with SF-295 CNS was determined as 2.76 µM; in the assay on EKVX NSCLC it was 4.72 µM; in the assay with OVCAR-8 ovarian it was 3.54 µM; in the assay on HL-60(TB) leukemia, 4.11 µM.
For `COc1cc2c(c(OC3OC(CO)C(O)C(O)C3O)c1)C(=O)CC(c1ccc(O)cc1)O2` (stereo not drawn), the TGI with HOP-92 NSCLC, in the assay on KM12 colon, in the assay with SK-MEL-5 melanoma, in the assay with 786-0 renal, in the assay with UACC-62 melanoma and in the assay with ACHN renal was greater than 100 µM throughout. Moreover, the TGI with SF-295 CNS, in the assay on EKVX NSCLC, in the assay with OVCAR-8 ovarian and in the assay on HL-60(TB) leukemia was greater than 100 µM each time.
With `N#Cc1cc(S(=O)(=O)Nc2nc3ccccc3s2)c(SCc2ccccc2)cc1Cl`, the GI50 was 24.1 µM in the assay with HOP-92 NSCLC; 19.8 µM in the assay on KM12 colon; 15.4 µM with SK-MEL-5 melanoma; 19.3 µM in the assay with 786-0 renal; 11.8 µM in the assay with UACC-62 melanoma; 24.7 µM with ACHN renal. Further, the GI50 is 13.6 µM in the assay with SF-295 CNS, 17.1 µM in the assay on EKVX NSCLC, 6.12 µM in the assay with OVCAR-8 ovarian and 51.5 µM in the assay on HL-60(TB) leukemia. Besides, the TGI amounted to 43.3 µM in the assay with HOP-92 NSCLC; 46.7 µM with KM12 colon; 31 µM in the assay with SK-MEL-5 melanoma; 39.9 µM in the assay with 786-0 renal; 29.5 µM with UACC-62 melanoma; 75 µM with ACHN renal. In addition, the TGI is 44.1 µM in the assay on SF-295 CNS, 34.5 µM with EKVX NSCLC, 39.8 µM in the assay on OVCAR-8 ovarian and greater than 100 µM in the assay with HL-60(TB) leukemia.
Regarding `Cc1cccc(Nc2cnc(N)nc2N)c1`, the TGI in the assay with HOP-92 NSCLC, with KM12 colon, with SK-MEL-5 melanoma, in the assay on 786-0 renal, in the assay on UACC-62 melanoma and in the assay with ACHN renal was greater than 100 µM each time. For the same compound, the TGI in the assay with SF-295 CNS, in the assay on EKVX NSCLC, with OVCAR-8 ovarian and in the assay on HL-60(TB) leukemia was greater than 100 µM in each case.
On to `CC(=O)Oc1ccc(C(c2ccc(OC(C)=O)cc2)c2ccccn2)cc1`, for which the GI50 in the assay with HOP-92 NSCLC was 0.861 µM; with KM12 colon it was 39.2 µM; in the assay on SK-MEL-5 melanoma it was 31.8 µM; in the assay with UACC-62 melanoma it was 21.2 µM; in the assay with ACHN renal, 36.8 µM; with SF-295 CNS, 37.1 µM. Moreover, the GI50 in the assay with OVCAR-8 ovarian is 21.8 µM; in the assay with HL-60(TB) leukemia it was 25.4 µM. Moreover, the TGI in the assay on HOP-92 NSCLC is 34.3 µM and > 94.1 µM; in the assay with KM12 colon it was greater than 100 µM; with SK-MEL-5 melanoma it was greater than 100 µM; in the assay with 786-0 renal it was greater than 100 µM; with UACC-62 melanoma, greater than 100 µM; with ACHN renal, greater than 100 µM. The TGI in the assay on SF-295 CNS was greater than 100 µM; in the assay on EKVX NSCLC, > 100 µM and 57.1 µM; with OVCAR-8 ovarian it was greater than 100 µM; with HL-60(TB) leukemia it was 70 µM and 69.7 µM.

(Values after PubChem BioAssay (NCI).)
